Literature values, collected in patent US7354746B1, “Method for producing optically active IHOG and monatin” (Ajinomoto Co., Inc., priority 2006, dated 2008).
Read-outs that look alike come from different tables or passages of the source.

Conditions: for Sweetness (vs. Sucrose): sweetness intensity relative to sucrose

| Structure (SMILES) | Sweetness rank among the 4 types of monatin isomers (comparison of the 4 monatin isomers) | Sweetness (vs. Sucrose) [times] | Sweetness (vs. Sucrose) (listed as (2R, 4R)-monatin) |
| --- | --- | --- | --- |
| N[C@H](CC(O)(Cc1c[nH]c2ccccc12)C(=O)O)C(=O)O (stereo partly drawn) [2R, 4R, (2R, 4R)-monatin] | highest sweetness | 2700 | 2,700 times |
| N[C@H](C[C@@](O)(Cc1c[nH]c2ccccc12)C(=O)O)C(=O)O [2R, 4S] | – | 1300 | – |
| N[C@@H](C[C@](O)(Cc1c[nH]c2ccccc12)C(=O)O)C(=O)O [2S, 4R, (2S, 4R)-monatin] | – | 300 | – |
| NC(CC(O)(Cc1c[nH]c2ccccc12)C(=O)O)C(=O)O [2S, 4S, (2S, 4S)-monatin] | – | 50 | – |
